Data taken from the supplement of paper PMC10307832.

What was measured:
Assay in all cases: relative viability (nuclei count vs DMSO), 5 days (fraction); higher = more cells survive
[1] = compound: C1CCC(CC1)N(CCNCCC2=C3C(=C(C=C2)O)NC(=O)CO3)C(=O)CCNCCC4=CC(=C(C=C4)Cl)Cl [AZ505] + COc1cccc2cc(-c3nc([C@H]4CC[C@H](C(=O)O)CC4)n4ncnc(N)c34)[nH]c12 [OSI-027] (partner 0.5 µM)
Method in brief: (§1)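 Relative viability is defined as nuclei in treated wells over nuclei in vehicle wells. Duplicate plates were run and medians reported. Lung cancer cell lines in 1536-well plates were dosed by pin tool one day after seeding, with one drug or with a fixed anchor-drug dose plus five library-drug doses (not always all listed) in √10 steps, and nuclei were counted after 5 days.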

[2] = compound: Cn1c(=O)n(-c2ccc(C(C)(C)C#N)cc2)c2c3cc(-c4cnc5ccccc5c4)ccc3ncc21 [Dactolisib] + CCNC(=O)c1noc(-c2cc(C(C)C)c(O)cc2O)c1-c1ccc(CN2CCOCC2)cc1 [Luminespib] (partner 0.01 µM)
Method in brief: as §1

[3] = compound: Cn1c(=O)n(-c2ccc(C(C)(C)C#N)cc2)c2c3cc(-c4cnc5ccccc5c4)ccc3ncc21 [Dactolisib] + CS(=O)(=O)CCNCc1ccc(-c2ccc3ncnc(Nc4ccc(OCc5cccc(F)c5)c(Cl)c4)c3c2)o1 [Lapatinib] (partner 2 µM)
Method in brief: as §1

[4] = compound: Cn1c(=O)n(-c2ccc(C(C)(C)C#N)cc2)c2c3cc(-c4cnc5ccccc5c4)ccc3ncc21 [Dactolisib] + NC(=O)Nc1cc(-c2cccc(F)c2)sc1C(=O)N[C@H]1CCCNC1 [AZD7762] (partner 0.2 µM)
Method in brief: as §1

Row | Cell Line | relative viability ([1]; first compound 0.08 µM) | relative viability ([1]; first compound 0.253 µM) | relative viability ([1]; first compound 0.8 µM) | relative viability ([1]; first compound 2.53 µM) | relative viability ([1]; first compound 8 µM) | relative viability ([2]; first compound 0.002 µM) | relative viability ([2]; first compound 0.006325 µM) | relative viability ([2]; first compound 0.02 µM) | relative viability ([2]; first compound 0.06325 µM) | relative viability ([2]; first compound 0.2 µM) | relative viability ([3]; first compound 0.002 µM) | relative viability ([3]; first compound 0.006325 µM) | relative viability ([3]; first compound 0.02 µM) | relative viability ([3]; first compound 0.06325 µM) | relative viability ([3]; first compound 0.2 µM) | relative viability ([4]; first compound 0.002 µM) | relative viability ([4]; first compound 0.006325 µM) | relative viability ([4]; first compound 0.02 µM) | relative viability ([4]; first compound 0.06325 µM) | relative viability ([4]; first compound 0.2 µM)
1 | NCI-H1915 | 0.549 | 0.563 | 0.544 | 0.416 | 0.587 | 0.78 | 0.823 | 0.692 | 0.516 | 0.442 | 0.986 | 0.956 | 0.97 | 0.964 | 0.693 | 0.654 | 0.67 | 0.696 | 0.664 | 0.597
2 | CAL-12T | 0.545 | 0.548 | 0.667 | 0.645 | 0.834 | 0.477 | 0.128 | 0.117 | 0.142 | 0.12 | 0.792 | 0.567 | 0.537 | 0.366 | 0.258 | 0.573 | 0.691 | 0.638 | 0.424 | 0.357
3 | LXF-289 | 0.701 | 0.748 | 0.763 | 0.668 | 0.959 | 0.698 | 0.688 | 0.669 | 0.478 | 0.403 | 0.92 | 0.906 | 0.916 | 0.884 | 0.731 | 1.14 | 1.13 | 1.19 | 1.14 | 0.862
4 | NCI-H460 | 0.636 | 0.71 | 0.57 | 0.57 | 0.845 | 0.0375 | 0.0432 | 0.0185 | 0.0179 | 0.0243 | 0.965 | 0.945 | 0.927 | 0.234 | 0.112 | 0.588 | 0.662 | 0.614 | 0.379 | 0.115
5 | NCI-H1944 | 0.396 | 0.389 | 0.497 | 0.385 | 0.425 | 0.957 | 0.724 | 0.714 | 0.288 | 0.263 | 0.808 | 0.814 | 0.758 | 0.412 | 0.378 | 0.374 | 0.47 | 0.401 | 0.24 | 0.195
6 | 201T | 0.688 | 0.721 | 0.813 | 0.91 | 0.764 | 1.15 | 0.992 | 0.952 | 0.89 | 0.469 | 1.07 | 1.05 | 0.991 | 0.956 | 0.969 | 0.578 | 0.64 | 0.613 | 0.464 | 0.402
7 | NCI-H23 | 0.54 |  | 0.609 | 0.71 | 0.563 | 0.205 | 0.208 | 0.222 | 0.191 | 0.203 | 1.15 | 1.1 | 0.886 | 0.292 | 0.313 | 0.241 | 0.232 | 0.309 | 0.19 | 0.101
8 | LOU-NH91 | 0.634 | 0.674 | 0.638 | 0.672 | 0.656 | 0.378 | 0.295 | 0.351 | 0.316 | 0.317 | 0.725 | 0.782 | 0.666 | 0.567 | 0.51 | 0.753 | 0.734 | 0.69 | 0.575 | 0.533
9 | NCI-H2085 | 0.664 | 0.536 | 0.733 | 0.772 | 0.858 | 0.387 | 0.388 | 0.374 | 0.208 | 0.239 | 0.798 | 0.657 | 0.659 | 0.359 | 0.337 | 0.984 | 0.9 | 0.877 | 0.731 | 0.281
10 | BEN | 0.287 | 0.274 | 0.259 | 0.304 | 0.309 | 0.382 | 0.234 | 0.366 | 0.25 | 0.268 | 0.882 | 0.624 | 0.657 | 0.408 | 0.274 | 0.781 | 0.645 | 0.547 | 0.588 | 0.41
11 | LK-2 | 0.238 | 0.206 | 0.232 | 0.229 | 0.2 | 0.152 | 0.198 | 0.195 | 0.171 | 0.197 | 0.804 | 0.831 | 0.807 | 0.474 | 0.235 | 0.273 | 0.447 | 0.305 | 0.12 | 0.0726
12 | NCI-H322M | 0.535 | 0.332 | 0.601 | 0.572 | 0.553 | 0.36 | 0.741 | 0.612 | 0.4 | 0.323 | 0.612 | 0.583 | 0.616 | 0.527 | 0.508 | 0.524 | 0.547 | 0.424 | 0.425 | 0.408
13 | ABC-1 | 0.469 | 0.325 | 0.521 | 0.493 | 0.558 | 0.496 | 0.59 |  | 0.257 | 0.366 | 1.18 | 1.04 | 0.982 | 0.808 | 0.707 | 0.925 | 0.805 | 0.738 | 0.761 | 0.557
14 | NCI-H1666 | 0.779 | 0.817 | 0.725 | 0.93 | 0.912 | 1.1 | 0.963 | 1.02 | 0.746 | 0.788 | 0.723 | 0.559 | 0.691 | 0.318 | 0.391 | 0.81 | 0.98 | 0.807 | 0.727 | 0.656
15 | NCI-H1993 | 0.568 | 0.572 | 0.51 | 0.529 | 0.556 | 0.752 | 0.738 | 0.637 | 0.442 | 0.488 | 0.784 | 0.714 | 0.843 | 0.601 | 0.651 | 0.735 | 0.507 | 0.53 | 0.335 | 0.387
16 | NCI-H1975 | 0.636 | 0.724 | 0.804 | 0.82 | 0.812 | 0.133 | 0.157 | 0.181 | 0.144 | 0.123 | 0.796 | 0.767 | 0.643 | 0.327 | 0.284 | 0.659 | 0.695 | 0.63 | 0.488 | 0.388
17 | HCC-44 | 0.468 | 0.594 | 0.534 | 0.639 | 0.486 | 0.914 | 1.04 | 0.943 | 0.379 | 0.644 | 1.09 | 1 | 1 | 0.68 | 0.547 | 1.03 | 1.03 | 0.951 | 1.07 | 1.14
